In US7223777B2, “Compounds for the management of aging-related and diabetic vascular complications, process for their preparation, therapeutic and cosmetic uses thereof” (Torrent Pharmaceuticals Ltd., priority 2001, dated 2007):

Experiments:
[1] = diabetes induced (Wolffenbuttel 1998); cited from earlier work
AGE-BSA = molecular target: T1, AGE-BSA (Bos taurus, UniProt P02769); experiment: In-vitro screening for AGE-breaking activity (AGE-BSA incubated with compound; ELISA / gel permeation chromatography); type: biochemical, bovine; details: 10 mM compound, 37° C., 24 hours
T1 construct: Bovine serum albumin (fraction V) (BSA); from tissue; host or cells: bovine serum (fraction V); own knowledge: fraction V is the albumin fraction of plasma/serum
Procedure: Fluorescence was used as the criteria to monitor the increased AGE formation.
160 mg/ml of protein, bovine serum albumin, BSA and 1.6M glucose sugar were dissolved in phosphate buffered saline, PBS. Sodium azide was added at 0.02% concentration as a preservative. The solution was filtered asceptically through a […] filter and kept for aging at 37° C. for 16 weeks. After 16 weeks the solution was dialyzed against PBS, aliquoted and stored at −20° C.
To determine the AGE breaking activity, 10 μg/ml of the 16 weeks AGE-BSA was incubated with different concentrations of the test compounds at 37° C. for 24 hours and AGE breaking activity of the test compounds by ELISA was determined.
• 1. Different concentrations of 16 weeks AGE-BSA were coated on a microtiter plate as standard. Each concentration is coated in triplicates. • 2. The test samples were coated on microtiter plate at a concentration of 5 ng. to 20 ng per well in triplicates. • 3. The plate was incubated at 37° C. for one hour. • 4. After incubation the plate was washed with PBST (PBS with 0.05% Tween 20). • 5. Blocking with 5% skimmed milk in PBS at 37° C. for one hour was done. • 6. The plate was washed with PBST. • 7. Primary antibody against AGE-BSA was added and the plate is incubated at 37° C. for one hour. • 8. The plate was washed with PBST. • 9. Secondary antibody anti rabbit HRPO (Horse-Radish Per Oxidase) conjugate was added and the plate is incubated at 37° C. for one hour. • 10. The plate was washed with PBST. • 11. Colour development with OPD (orthophenylenediamine dihydrochloride) and hydrogen peroxide was done. • 12. OD (optical density) at (450 nm reading –620 nm reading) was measured after incubation at 37° C. for 15 minutes with Microplate ELISA Reader.
The breaker activity of the compounds were determined by the following formula:
[formula] OD450-620Control=Absorbance of 20 ng AGE-BSA after incubation at 37° C. for 24 hours without test compound. OD450-620Test=Absorbance of 20 ng AGE-BSA after incubation at 37° C. for 24 hours with required concentration of test compound.
Gel Permeation Chromatography based method was used to determine AGE breaking activities of the compounds.
Separation by Gel Permeation Chromatography (GPC) depends on differences in the size, more precisely the hydrodynamic volume, of the proteins in a sample. […] The pores of a column particle are differentially accessible to smaller particles, depending on their size. This volume of the column is called (V1). The total accessible volume (Vt) is the sum of the volume outside the particles (V0) and the volume accessible inside the particles (V1): Vt=V0+Vi Therefore, in a typical Gel Permeation Chromatography (GPC) run, high molecular weight molecules elute at a lower retention time whereas lower molecular weight molecules are retained for longer time. For the purpose of quantification, the area under the curve for the respective molecule is recorded. The same principle has been applied in the in vitro screening of the molecules of instant invention. Highly cross-linked Advanced Glycosylated Endproducts (AGE) were prepared in vitro by incubating Bovine Serum Albumin (BSA) with glucose for a period of 16 weeks. […] The reduction in the area of AGE-BSA incubated in the presence of AGE breaker as compared to that of control AGE BSA (incubated in absence of AGE breaker) gives an estimate of the AGE breaker activity of the drug. In order to check the non-specific activity of the molecule, a similar experiment was repeated with BSA as well. Methodology:
A known concentration of 16-week AGE-BSA was incubated with and without a predetermined concentration of the drug at 37° C. for 24 hours in clean transparent glass test tubes. The solution without drug served as the control and the solution containing the drug was treated as the test sample.
Gel permeation chromatography was performed on equal volumes of control AGE-BSA preparation and solution of AGE-BSA treated with drug. […]

[2] = Free radical scavenging activity on ABTS radical cation; type: biochemical
Procedure: This method measures the relative ability of free radical scavenging substances to scavenge the ABTS.^+ i.e. 2,2-Azino-bis-(3-ethyl benzo thiazoline-6-sulfonate) radical cation as compared to a standard amount of standard or free radical scavengers antioxidants. Incubation of ABTS with Peroxidase (metmyoglobin) and hydrogen peroxide results in the production of radical cation ABTS.^+. This species is blue-green in colour and can be detected at 730 nm. Antioxidants or free radical scavengers in the added sample that causes suppression of the color to a degree that is proportional to their concentration.
Preparation of Buffer Solutions: • a. Phosphate Citrate Buffer (pH 5.0): 48.5 ml of 0.1M citric acid with sufficient 0.2M disodium hydrogen phosphate to produce 100 ml. • b. Phosphate Buffer Saline (PBS): Dissolve 40.0 g of NaCl, 1.0 g of KCl, 1.0 g of KH2PO4 and 3.05 g of Na2HPO4 in 1 liter milli-Q water. Dilute 200 ml of above solution to 1 liter with milli-Q water (pH 7.4–7.6).
Preparation of ABTS Stock Solution (2 mM): • 1 tablet (10 mg) was dissolved in phosphate citrate buffer (pH 5.0) to give a 2 mM solution.
Preparation of Horse Radish Peroxidase Working Solution: • 0.1 mg was dissolved in 10 ml of phosphate buffer saline, 1 ml of this solution was diluted to 100 ml with PBS.
Preparation of Hydrogen Peroxide (1.08 mM) Solution: • 12 μl of Hydrogen Peroxide (30% w/v) was diluted to 100 ml with PBS.
Preparation of Drug Solutions: • 0.1 mM of stock solution of the drug was prepared which was serially diluted in PBS to get 0.05 mM, 0.025 mM and 0.0125 mM solutions.
Preparation of ABTS Radical Stock Solution: • To 2 ml of ABTS stock solution, 1 ml of horseradish Peroxidase working solution was added. • As soon as 2 ml of Hydrogen peroxide solution was added to the above solution, blue-green colour of the ABTS radicals appeared. This solution was incubated at 30° C. for 30 min in order to ensure the completion reaction. Make up the volume to 10 ml with PBS.
Preparation of Control Solution: • 900 μl of ABTS radical stock solution were added to an eppendorf tube. To it were added 100 μl of PBS solution.
Preparation of Test Solution: • 900 μl of ABTS radical stock solutions were added to different eppendorf tubes. To it were added 100 μl of various concentrations of drug solution.
Measurement of Absorbance (O.D): • The absorbance of control and test samples was recorded immediately at 730 nm taking PBS as blank.
Calculation: • The percent antioxidant activity was calculated according to the formula: % Antioxidant activity=100−[O.D of test sample/O.D of control×100]

[3] = system: Maillard reaction in-vitro (BSA, ribose); experiment: Test for AGE inhibiting activity (Maillard reaction in-vitro, BSA + ribose, fluorescence); type: biochemical, bovine; details: 37° C., 7 days
Procedure: The following method was used to determine the inhibitory effect of the test compounds on Maillard reaction in-vitro. This method is adopted from U.S. Pat. No. 5,514,676 and European Patent No. 0 339 496 A2.
A solution of Bovine Serum Albumin (BSA), ribose and test compound was prepared in Phosphate Buffer Saline (PBS, pH 7.4) so as to have final concentration of BSA and ribose at 10 mg/ml and 500 mM respectively. Addition of compound was done in aseptic conditions. Sodium azide (0.02%) was also added in this solution in order to prevent microbial growth. A separate tube containing BSA, ribose and sodium azide in the same concentration and buffer as above, but without any test compound, was also incubated as positive control. After incubation at 37° C. for 7 days, 40 micro liter sample from each tube was removed and diluted with PBS to have final concentration of BSA at 1 mg/ml. The fluorescence of all the samples was measured at Excitation Maximum of […] and the Emission Maximum of […] using f-MAX Fluorimeter (Molecular Device, USA). In order to study the effect of test compound on fluorescence, freshly prepared compound solution was mixed with previously incubated positive control (i.e. BSA+ribose), so as to achieve same concentration of all the components as that of test samples.
The percent inhibition of test compound was measured as follows:
[formula] Where F3=Fluorescence of BSA+ribose+compound, F4 is fluorescence of incubated (BSA+ribose)+freshly added test compound.

[4] = system: AGE derived protein cross links; details: Vasan et al. Nature 1996; U.S. Pat. No. 5,853,703; cited from earlier work
diabetic rats [5] = details: cited from earlier work
old rats = details: aging rats (Li et al 1996); cited from earlier work
diabetic rats [6] = details: diabetic rats (Kihara 1991, Miyauchi 1996, Yagihashi 1992); cited from earlier work
[7] = system: diabetic retinopathy in rat model; details: rat model (Hammes 1991, 1994; Roufail 1998); cited from earlier work

T1 sequence (P02769 25-607): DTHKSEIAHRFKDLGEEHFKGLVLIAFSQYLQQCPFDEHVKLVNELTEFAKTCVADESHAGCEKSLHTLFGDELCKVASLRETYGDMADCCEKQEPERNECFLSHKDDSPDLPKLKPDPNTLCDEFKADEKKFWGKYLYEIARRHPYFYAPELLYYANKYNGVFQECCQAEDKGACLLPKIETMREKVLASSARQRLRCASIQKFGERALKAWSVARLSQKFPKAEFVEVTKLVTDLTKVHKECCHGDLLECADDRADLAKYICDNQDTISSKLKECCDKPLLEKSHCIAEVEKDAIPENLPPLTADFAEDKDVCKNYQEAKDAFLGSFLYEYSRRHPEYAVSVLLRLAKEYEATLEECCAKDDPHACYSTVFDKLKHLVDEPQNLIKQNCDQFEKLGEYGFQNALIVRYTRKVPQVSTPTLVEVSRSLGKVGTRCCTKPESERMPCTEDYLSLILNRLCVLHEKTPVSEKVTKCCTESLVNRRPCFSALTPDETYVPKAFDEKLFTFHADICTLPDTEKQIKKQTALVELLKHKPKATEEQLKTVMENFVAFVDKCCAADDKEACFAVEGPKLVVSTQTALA

Compound	% Breakage (AGE-BSA) [%]	Relative Free Radical Scavenging Activity (%) on ABTS ([2]; 12.5 μM) [%]	Relative Free Radical Scavenging Activity (%) on ABTS ([2]; 25.0 μM) [%]	Relative Free Radical Scavenging Activity (%) on ABTS ([2]; 50.0 μM) [%]	Relative Free Radical Scavenging Activity (%) on ABTS ([2]; 100.0 μM) [%]	% Inhibition (Day 7) ([3]; 5 mM compound) [%]	other results
Cc1sc[n+](CC(=O)c2ccccc2)c1C.[Cl-] [ALT-711]							arterial stiffness and arterial compliance [1]: reverse diabetes induced increase of arterial stiffness and improve arterial compliance
O=C(C[n+]1cccc(-c2cc(Cc3ccccc3)nn2-c2ccccc2)c1)c1ccccc1.[Cl-] [Compound 19, 1-(2-Phenyl-2-oxoethyl)-3-[(1-phenyl-3-phenylmethyl)pyrazol-5-yl]pyridinium chloride]	91.22	8.37	19.42	37.62	55.18	64.23	
O=C(C[n+]1cccc(-c2cc(CCC3CCCCC3)n[nH]2)c1)c1ccccc1.[Cl-] [Compound 22]	100.00	22.52	29.52	30.31	31.40		% Inhibition (Day 7) ([3]; 2.5 mM compound): 51%
O=C(C[n+]1cccc(-c2cc(COc3ccccc3)n[nH]2)c1)c1cccs1.[Cl-] [Compound 24, 1-(2-Thien-2′-yl-2-oxoethyl)-3-[(3-phenoxymethyl)pyrazol-5-yl]pyridinium chloride]	97.72	43.66	74.64	83.24	90.12	82.5	
Cc1cc(C)n(Cc2cc(-c3ccc[n+](CC(=O)c4ccccc4)c3)n(-c3ccccc3)n2)n1.[Br-] [Compound 26]	42.37	21.18	34.22	41.66	75.27	61.45	
O=C(C[n+]1cccc(-c2cc(COc3ccccc3)nn2-c2ccccc2)c1)c1ccccc1.[Cl-] [Compound 34, 1-(2-Phenyl-2-oxoethyl)-3-[(1-phenyl-3-phenoxymethyl)pyrazol-5-yl]pyridinium chloride]	100.0	13.2	19.08	26.39	29.40	60	
O=C(C[n+]1ccsc1)c1ccccc1.[Br-] [N-phenacyl thiazolium bromide]							cleavage of AGE derived protein cross links [4]: cleaves covalent, AGE derived protein cross links
N=C(N)NN [aminoguanidine]							development of diabetic nephropathy (diabetic rats [5]; Yamauchi (1997)): inhibits development of diabetic nephropathy; thickening of glomerular basement membrane (diabetic rats [5]; diabetic rats (Ellis 1991)): ameliorate thickening of glomerular basement membrane; rise in albuminuria (diabetic rats [5]; experimental diabetic rats (Soulis-Liparota, 1991)): attenuate the rise in albuminuria; tissue damage (old rats): significantly prevent tissue damage; nerve conduction velocity (diabetic rats [6]): improve nerve conduction velocity; progression of diabetic retinopathy [7]: retard progression of diabetic retinopathy
